The record followed here is ChEMBL document CHEMBL5465560, “Selectivity Literature for EUbOPEN Chemogenomic Library” (2024).

Test [1] concerns the target T1, Serine/threonine-protein kinase TAO3 (Homo sapiens) (UniProt Q9H2K8).
T1 sequence (whole entry): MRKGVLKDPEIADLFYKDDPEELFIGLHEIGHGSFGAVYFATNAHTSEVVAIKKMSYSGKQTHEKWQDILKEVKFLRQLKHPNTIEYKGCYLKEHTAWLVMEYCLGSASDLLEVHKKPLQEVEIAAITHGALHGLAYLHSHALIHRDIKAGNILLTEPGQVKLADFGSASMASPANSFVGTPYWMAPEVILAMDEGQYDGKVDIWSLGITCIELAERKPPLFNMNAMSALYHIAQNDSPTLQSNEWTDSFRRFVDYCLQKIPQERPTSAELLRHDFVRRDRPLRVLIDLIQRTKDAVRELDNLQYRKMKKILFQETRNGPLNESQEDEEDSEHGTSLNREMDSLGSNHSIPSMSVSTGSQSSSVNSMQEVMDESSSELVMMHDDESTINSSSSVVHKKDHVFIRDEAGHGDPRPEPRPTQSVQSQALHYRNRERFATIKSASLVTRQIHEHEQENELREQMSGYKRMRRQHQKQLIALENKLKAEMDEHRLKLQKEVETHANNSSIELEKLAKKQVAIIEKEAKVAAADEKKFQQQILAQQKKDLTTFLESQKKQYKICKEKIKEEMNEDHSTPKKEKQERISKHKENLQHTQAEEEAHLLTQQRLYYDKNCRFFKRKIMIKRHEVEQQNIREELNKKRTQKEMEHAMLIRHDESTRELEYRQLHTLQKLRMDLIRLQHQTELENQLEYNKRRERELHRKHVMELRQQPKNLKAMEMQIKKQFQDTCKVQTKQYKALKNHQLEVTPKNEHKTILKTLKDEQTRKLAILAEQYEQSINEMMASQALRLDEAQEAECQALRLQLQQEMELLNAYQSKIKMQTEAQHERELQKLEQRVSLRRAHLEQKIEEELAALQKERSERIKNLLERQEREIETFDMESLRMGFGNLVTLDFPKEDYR
The experiment in a line: Selectivity interaction (Ambit KINOMEscan and KiNATiv profiling in Jurkat cells) EUB0000090b TAOK3. In kind it is cell-based. The note with it: at 1 µM.

Test [2] deals with Epithelial discoidin domain-containing receptor 1 (Homo sapiens) (UniProt Q08345). The experiment in a line: Selectivity interaction (Ambit KINOMEscan and KiNATiv profiling in Jurkat cells) EUB0000090b DDR1. In kind it is cell-based. The note with it: at 1 µM.
Test [3] concerns the target Serine/threonine-protein kinase MARK1 (Homo sapiens) (UniProt Q9P0L2). The note with it: at 10 µM.
For test [4], the target named is Citron Rho-interacting kinase (Homo sapiens) (UniProt O14578). The note with it: at 10 µM.
Test [5] concerns the target Tyrosine-protein kinase Srms (Homo sapiens) (UniProt Q9H3Y6). The experiment in a line: Selectivity interaction (KinomeScan (DiscoverX)) EUB0000229b SRMS. The note with it: at 10 µM.
The target of test [6] is T2, MAP kinase-activated protein kinase 5 (Homo sapiens) (UniProt Q8IW41).
T2 sequence (whole entry): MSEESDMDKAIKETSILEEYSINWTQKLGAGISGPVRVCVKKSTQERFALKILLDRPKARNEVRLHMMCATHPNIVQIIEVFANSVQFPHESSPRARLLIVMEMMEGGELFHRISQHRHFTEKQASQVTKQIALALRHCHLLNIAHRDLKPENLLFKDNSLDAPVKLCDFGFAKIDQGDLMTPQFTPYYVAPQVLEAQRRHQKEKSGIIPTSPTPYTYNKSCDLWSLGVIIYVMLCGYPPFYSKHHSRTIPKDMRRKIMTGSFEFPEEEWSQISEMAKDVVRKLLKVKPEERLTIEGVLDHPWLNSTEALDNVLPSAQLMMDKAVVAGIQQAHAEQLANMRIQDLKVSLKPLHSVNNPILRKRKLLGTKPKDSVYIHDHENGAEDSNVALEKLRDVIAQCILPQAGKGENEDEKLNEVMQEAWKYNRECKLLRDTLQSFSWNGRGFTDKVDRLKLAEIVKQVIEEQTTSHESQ
The experiment in a line: Selectivity interaction (KinomeScan (DiscoverX)) EUB0000229b MAPKAPK5. Conditions: at 10 µM.

For test [7], the target named is LIM domain kinase 2 (Homo sapiens) (UniProt P53671). As to the kind of experiment: Selectivity interaction (KinomeScan (DiscoverX)) EUB0000655a LIMK2. Conditions: at 10 µM.
The target of test [8] is Microtubule-associated serine/threonine-protein kinase 1 (Homo sapiens) (UniProt Q9Y2H9). As to the kind of experiment: Selectivity interaction (KinomeScan (DiscoverX)) EUB0001079a MAST1. Conditions: at 1 µM.
The target in test [9] is Non-receptor tyrosine-protein kinase TYK2 (Homo sapiens, UniProt P29597). As to the kind of experiment: Selectivity interaction (KinomeScan (DiscoverX)) EUB0001619a TYK2. The note with it: at 1 µM.
Test [10] concerns the target Alpha-2A adrenergic receptor (Homo sapiens, UniProt P08913). As to the kind of experiment: Selectivity interaction (Alpha2A calcium flux assay ) EUB0000877a ADRA2A.
Test [11] deals with T3, Eukaryotic elongation factor 2 kinase (Homo sapiens) (UniProt O00418).
T3 sequence (whole entry): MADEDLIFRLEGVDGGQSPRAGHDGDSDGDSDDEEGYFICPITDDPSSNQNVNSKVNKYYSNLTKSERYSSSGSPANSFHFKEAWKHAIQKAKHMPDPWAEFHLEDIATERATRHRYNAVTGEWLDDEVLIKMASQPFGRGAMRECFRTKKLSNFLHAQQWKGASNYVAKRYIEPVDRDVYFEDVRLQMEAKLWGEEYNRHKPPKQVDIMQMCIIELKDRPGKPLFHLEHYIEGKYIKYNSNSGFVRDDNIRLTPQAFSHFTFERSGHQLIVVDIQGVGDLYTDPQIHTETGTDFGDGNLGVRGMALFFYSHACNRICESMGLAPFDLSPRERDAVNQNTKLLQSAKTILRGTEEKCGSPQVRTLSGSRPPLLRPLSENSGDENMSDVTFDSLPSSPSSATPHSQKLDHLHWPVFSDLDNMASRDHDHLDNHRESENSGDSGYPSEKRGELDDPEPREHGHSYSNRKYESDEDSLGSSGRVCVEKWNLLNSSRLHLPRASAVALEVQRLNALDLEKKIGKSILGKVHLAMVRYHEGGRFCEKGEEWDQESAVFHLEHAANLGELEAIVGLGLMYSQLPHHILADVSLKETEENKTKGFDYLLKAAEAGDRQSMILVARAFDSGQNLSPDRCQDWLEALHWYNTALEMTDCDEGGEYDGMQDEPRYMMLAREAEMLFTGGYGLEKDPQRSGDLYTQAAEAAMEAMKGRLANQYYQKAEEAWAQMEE
As to the kind of experiment: Selectivity interaction (ActivX KiNativ screen (kinase selectivity in THP-1 cell lysates)) EUB0000639a EEF2K. The note with it: lysate. In kind it is subcellular.

Test [12] has as its target Mitogen-activated protein kinase kinase kinase 9 (Homo sapiens) (UniProt P80192). As to the kind of experiment: Selectivity interaction (ProQinase) EUB0000171b MAP3K9.
The target of test [13] is Tyrosine-protein kinase JAK2 (Homo sapiens, UniProt O60674). As to the kind of experiment: Selectivity interaction (NanoBRET assay (HEK293T cells)) EUB0001559a JAK2. Format: cell-based, HEK-293T.

Where only a bound is given, the exact number is not on record here.

Sequence of Mitogen-activated protein kinase kinase kinase 9 (Homo sapiens) (P80192 whole entry, looked up): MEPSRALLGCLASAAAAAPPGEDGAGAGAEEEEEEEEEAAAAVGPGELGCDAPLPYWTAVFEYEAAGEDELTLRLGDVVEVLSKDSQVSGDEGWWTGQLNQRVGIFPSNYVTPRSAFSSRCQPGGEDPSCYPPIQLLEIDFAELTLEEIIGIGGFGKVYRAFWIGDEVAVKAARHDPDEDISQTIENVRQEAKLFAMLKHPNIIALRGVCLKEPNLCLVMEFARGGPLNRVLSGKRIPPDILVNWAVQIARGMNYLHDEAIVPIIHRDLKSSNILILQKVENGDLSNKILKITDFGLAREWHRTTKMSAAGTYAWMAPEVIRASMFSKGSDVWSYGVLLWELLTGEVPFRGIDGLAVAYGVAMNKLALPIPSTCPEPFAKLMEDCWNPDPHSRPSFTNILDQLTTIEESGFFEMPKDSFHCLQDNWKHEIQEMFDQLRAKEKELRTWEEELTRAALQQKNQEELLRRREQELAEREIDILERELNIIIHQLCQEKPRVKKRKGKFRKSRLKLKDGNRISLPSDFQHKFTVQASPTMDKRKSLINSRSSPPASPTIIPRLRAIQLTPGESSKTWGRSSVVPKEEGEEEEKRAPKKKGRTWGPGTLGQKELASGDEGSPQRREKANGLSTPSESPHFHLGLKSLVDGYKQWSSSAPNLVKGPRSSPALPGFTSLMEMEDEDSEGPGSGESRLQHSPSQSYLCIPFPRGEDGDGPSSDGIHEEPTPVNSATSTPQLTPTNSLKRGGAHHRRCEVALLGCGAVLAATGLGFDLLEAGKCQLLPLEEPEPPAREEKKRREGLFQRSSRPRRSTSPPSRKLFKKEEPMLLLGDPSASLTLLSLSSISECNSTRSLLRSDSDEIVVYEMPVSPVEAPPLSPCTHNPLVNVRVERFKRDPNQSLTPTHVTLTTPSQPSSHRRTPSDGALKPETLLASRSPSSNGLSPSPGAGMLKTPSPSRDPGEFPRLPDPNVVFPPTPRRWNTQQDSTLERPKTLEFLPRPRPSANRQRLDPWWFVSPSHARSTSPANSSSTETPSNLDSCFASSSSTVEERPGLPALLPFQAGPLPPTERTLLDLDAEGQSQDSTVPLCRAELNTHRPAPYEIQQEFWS
Sequence of Alpha-2A adrenergic receptor (P08913 whole entry): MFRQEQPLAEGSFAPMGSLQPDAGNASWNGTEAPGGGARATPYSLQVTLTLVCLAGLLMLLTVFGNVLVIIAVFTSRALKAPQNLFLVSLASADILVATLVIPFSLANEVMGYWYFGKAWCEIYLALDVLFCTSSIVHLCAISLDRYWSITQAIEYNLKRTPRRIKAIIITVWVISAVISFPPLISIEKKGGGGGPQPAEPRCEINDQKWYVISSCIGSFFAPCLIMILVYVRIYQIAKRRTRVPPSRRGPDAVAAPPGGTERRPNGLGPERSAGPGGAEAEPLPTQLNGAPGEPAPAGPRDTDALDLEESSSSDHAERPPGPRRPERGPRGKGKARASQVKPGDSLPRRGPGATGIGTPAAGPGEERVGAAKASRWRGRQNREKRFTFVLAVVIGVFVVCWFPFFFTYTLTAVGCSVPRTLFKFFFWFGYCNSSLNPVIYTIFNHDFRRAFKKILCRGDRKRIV
Sequence of Tyrosine-protein kinase Srms (Homo sapiens) (Q9H3Y6 whole entry): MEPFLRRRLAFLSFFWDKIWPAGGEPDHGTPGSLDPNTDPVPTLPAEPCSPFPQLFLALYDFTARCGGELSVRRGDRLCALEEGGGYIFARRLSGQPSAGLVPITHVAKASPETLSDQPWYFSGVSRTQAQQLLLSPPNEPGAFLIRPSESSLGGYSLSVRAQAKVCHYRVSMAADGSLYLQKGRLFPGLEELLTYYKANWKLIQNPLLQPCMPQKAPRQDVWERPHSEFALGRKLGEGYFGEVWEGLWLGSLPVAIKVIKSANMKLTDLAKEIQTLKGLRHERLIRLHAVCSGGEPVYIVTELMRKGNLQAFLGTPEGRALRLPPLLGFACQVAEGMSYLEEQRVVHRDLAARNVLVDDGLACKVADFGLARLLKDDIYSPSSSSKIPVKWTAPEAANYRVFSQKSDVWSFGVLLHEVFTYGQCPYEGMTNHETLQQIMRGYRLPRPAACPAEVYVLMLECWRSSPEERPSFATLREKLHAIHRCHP
Sequence of Tyrosine-protein kinase JAK2 (O60674 whole entry): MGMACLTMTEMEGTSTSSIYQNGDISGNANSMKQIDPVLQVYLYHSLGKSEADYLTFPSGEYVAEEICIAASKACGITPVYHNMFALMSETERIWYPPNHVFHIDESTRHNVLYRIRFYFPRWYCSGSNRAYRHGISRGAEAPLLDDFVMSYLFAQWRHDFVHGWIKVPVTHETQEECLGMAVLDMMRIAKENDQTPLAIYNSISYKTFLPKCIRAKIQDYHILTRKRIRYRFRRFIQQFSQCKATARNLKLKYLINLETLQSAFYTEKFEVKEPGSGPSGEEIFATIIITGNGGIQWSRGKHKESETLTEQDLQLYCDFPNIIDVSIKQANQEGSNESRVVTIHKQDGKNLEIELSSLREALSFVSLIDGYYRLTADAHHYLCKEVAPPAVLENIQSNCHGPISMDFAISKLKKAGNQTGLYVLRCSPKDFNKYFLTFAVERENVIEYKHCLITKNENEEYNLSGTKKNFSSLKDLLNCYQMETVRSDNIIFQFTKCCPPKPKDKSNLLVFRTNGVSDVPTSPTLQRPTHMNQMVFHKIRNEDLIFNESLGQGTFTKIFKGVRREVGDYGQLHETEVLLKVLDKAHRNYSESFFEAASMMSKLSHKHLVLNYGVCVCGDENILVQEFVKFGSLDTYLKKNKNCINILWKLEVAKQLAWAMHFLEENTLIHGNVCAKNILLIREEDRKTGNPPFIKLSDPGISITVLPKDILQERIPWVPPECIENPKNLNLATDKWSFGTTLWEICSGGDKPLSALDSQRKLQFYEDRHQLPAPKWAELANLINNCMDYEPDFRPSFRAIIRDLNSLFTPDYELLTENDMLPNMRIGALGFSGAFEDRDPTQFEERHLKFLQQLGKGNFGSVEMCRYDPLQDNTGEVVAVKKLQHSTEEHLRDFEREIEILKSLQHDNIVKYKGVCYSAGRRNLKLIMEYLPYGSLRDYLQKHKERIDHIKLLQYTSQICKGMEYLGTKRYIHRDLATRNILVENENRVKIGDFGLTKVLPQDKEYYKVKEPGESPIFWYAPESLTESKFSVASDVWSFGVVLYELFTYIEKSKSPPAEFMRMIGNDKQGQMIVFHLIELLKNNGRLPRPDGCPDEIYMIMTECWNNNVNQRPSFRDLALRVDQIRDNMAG
Sequence of LIM domain kinase 2 (Homo sapiens) (P53671 whole entry, looked up, the tested form may be a part): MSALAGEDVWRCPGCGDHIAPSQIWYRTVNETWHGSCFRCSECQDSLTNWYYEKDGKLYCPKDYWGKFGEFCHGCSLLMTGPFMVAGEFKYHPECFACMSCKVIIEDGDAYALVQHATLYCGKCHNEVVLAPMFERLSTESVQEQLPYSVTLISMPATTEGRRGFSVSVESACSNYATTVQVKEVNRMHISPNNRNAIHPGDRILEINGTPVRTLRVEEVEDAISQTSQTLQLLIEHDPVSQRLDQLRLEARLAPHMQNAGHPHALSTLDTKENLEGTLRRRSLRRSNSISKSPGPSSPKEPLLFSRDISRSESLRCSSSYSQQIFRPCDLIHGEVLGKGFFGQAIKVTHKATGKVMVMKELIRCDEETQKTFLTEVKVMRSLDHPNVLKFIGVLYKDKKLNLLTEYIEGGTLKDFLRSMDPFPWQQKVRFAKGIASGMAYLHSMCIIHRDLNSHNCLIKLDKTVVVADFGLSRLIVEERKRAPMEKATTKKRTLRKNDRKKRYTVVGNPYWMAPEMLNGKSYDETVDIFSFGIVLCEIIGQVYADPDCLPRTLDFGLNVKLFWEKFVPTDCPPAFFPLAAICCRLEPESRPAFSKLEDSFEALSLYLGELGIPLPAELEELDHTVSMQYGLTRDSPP
Sequence of Non-receptor tyrosine-protein kinase TYK2 (P29597 whole entry): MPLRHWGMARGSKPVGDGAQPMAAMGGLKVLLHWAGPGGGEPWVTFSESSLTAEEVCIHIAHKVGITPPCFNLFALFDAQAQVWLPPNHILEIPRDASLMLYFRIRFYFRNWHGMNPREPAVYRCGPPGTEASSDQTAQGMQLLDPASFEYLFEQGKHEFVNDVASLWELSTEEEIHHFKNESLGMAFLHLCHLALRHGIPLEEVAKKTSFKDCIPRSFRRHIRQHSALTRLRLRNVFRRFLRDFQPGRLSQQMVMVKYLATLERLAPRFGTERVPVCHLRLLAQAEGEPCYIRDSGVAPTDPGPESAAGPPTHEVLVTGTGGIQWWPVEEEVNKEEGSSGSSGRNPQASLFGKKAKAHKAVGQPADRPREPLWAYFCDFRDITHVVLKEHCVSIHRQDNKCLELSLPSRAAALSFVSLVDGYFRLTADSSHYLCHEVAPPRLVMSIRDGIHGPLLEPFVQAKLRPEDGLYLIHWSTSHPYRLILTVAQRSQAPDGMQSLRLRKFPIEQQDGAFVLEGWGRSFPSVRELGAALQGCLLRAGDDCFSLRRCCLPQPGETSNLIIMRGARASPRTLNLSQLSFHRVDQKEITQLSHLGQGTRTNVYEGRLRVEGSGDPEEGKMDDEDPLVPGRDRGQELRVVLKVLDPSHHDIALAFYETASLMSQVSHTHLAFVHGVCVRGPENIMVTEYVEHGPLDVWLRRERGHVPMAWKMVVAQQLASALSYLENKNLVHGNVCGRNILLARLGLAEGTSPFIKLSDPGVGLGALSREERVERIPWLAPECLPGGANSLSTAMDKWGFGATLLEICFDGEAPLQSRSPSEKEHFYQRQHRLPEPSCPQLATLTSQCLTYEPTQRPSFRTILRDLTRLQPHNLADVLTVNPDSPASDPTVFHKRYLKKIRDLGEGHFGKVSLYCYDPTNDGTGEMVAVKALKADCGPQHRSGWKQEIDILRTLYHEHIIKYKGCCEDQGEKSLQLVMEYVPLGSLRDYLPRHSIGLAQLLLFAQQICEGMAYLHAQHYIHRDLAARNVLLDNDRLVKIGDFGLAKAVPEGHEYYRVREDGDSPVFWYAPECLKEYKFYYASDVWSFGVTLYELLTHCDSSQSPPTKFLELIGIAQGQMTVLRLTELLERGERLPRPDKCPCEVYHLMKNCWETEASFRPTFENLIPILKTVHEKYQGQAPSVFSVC

Turning to `CN(C)C/C=C/C(=O)Nc1ccc(C(=O)N2CCCC(Nc3ncc(Cl)c(-c4c[nH]c5ccccc45)n3)C2)cc1` (stereo not drawn), the % of control in test [1] is 97%; in test [2], 93%. For the compound `Cc1cc([C@@H](C)Nc2ccccc2C(=O)O)c2nc(N3CCOCC3)cc(=O)n2c1` [AZD-6482], the % of control in [3] is 100%; in [4], 89%. With `COc1cc(N(C)c2ccnc3ccc(C(F)(F)F)cc23)cc(OC)c1OC`, the results for the % binding in [5] and in test [6] were 60% and 63%, respectively. In test [7], `CN(C)CCOc1ccc(-c2nc(-c3ccncc3)c(-c3ccc4c(c3)CC/C4=N\O)[nH]2)cc1` returned a % of control of 79%.

In test [8], `Nc1cnc(N2CCc3cc(S(=O)(=O)Nc4c(F)cc(Cl)cc4F)cc(N4CCCC4=O)c32)nc1` [TP-020n] had a % of control of 97%.

Turning to `N#Cc1cccc(-c2c[nH]c3ncnc(N4CCOCC4)c23)c1`, the % of control in [9] is 69%.

As to `CCC(=O)N1CC[C@H](Nc2ncnc3c2CN(c2cnc(OC)c(C(F)(F)F)c2)CC3)C1` [LENIOLISIB], the IC50 in test [10] is > 30 µM. As to `CC[C@@H]1[C@H](F)C(=O)N[C@@H]1COc1nccc2cc(C(N)=O)c(OC)cc12` [ZIMLOVISERTIB], the % of inhibition in [11] (at 0.01 µM) is 4.3%; in [11] (at 0.04 µM), -14.7%; in [11] (at 0.2 µM), 2.9%; in test [11] (at 1 µM) it was -15.8%; in test [11] (at 5 µM), -3.6%. Take `C=CC(=O)Nc1cccc(C(=O)Nc2ccc(Nc3cc(-c4[nH]c(SC)nc4C)ccn3)cc2)c1`: the figures for the % of control in test [12] (at 1 µM) and in [12] (at 5 µM) were 80% and 45%, respectively.

As to `CN(C(=O)c1cnn2cccnc12)c1cc2c(cc1N1CCOCC1)C(=O)N(C[C@@H](F)C(C)(C)O)C2`, the EC50 in [13] is > 50 µM.
